Assay results reported in US7311893B2, “Amyloid targeting imaging agents and uses thereof” (Neurochem (International) Limited, priority 2000, dated 2007).

tested on: insoluble amyloid or amyloid plaques; assay: binding data for amyloid-targeting moieties (FIGS. 1 and 2); details: insoluble vs soluble amyloid; data in FIGS. 1 and 2

Compound | binding to insoluble amyloid or amyloid plaques in preference to soluble amyloid
O=S(=O)(O)CCCNC1(CO)CCCC1 [3-(1-hydroxymethyl-1-cyclopentyl)amino-1-propane sulfonic acid] | bind insoluble amyloid or amyloid plaques in preference to soluble amyloid
O=S(=O)(O)CCCNCCCCCCO [3-(6-hydroxy-1-hexyl)amino-1-propane sulfonic acid] | bind insoluble amyloid or amyloid plaques in preference to soluble amyloid
O=S(=O)(O)CCCN1CCN(CCCS(=O)(=O)O)CC1 [1,4-piperazinebis(propanesulfonic acid)] | bind insoluble amyloid or amyloid plaques in preference to soluble amyloid
O=S(=O)(O)NCCCO [3-hydroxypropylsulfamic acid] | bind insoluble amyloid or amyloid plaques in preference to soluble amyloid
COC(=O)CCN1CCc2ccccc2C1.Cl [methyl 2-(2-carboxyethyl)-1,2,3,4-tetrahydroisoquinoline hydrochloride] | bind insoluble amyloid or amyloid plaques in preference to soluble amyloid
Cc1ccc2nc(-c3ccc(N=NNc4ccc(-c5nc6ccc(C)c(S(=O)(=O)[O-])c6s5)cc4)cc3)sc2c1S(=O)(=O)[O-].[Na+].[Na+] [Thiazole yellow G, reference compound] | bind insoluble amyloid or amyloid plaques in preference to soluble amyloid
O=S(=O)(O)CCCN1CC=CCC1 [3-[1-(1,2,3,6-tetrahydropyridinyl)]-1-propanesulfonic acid] | bind insoluble amyloid or amyloid plaques in preference to soluble amyloid
1,6-hexanedisulfonate | bind insoluble amyloid or amyloid plaques in preference to soluble amyloid
O=S(=O)(O)CCCCN1CCCCC1 [4-(1-piperidinyl)-1-butanesulfonic acid] | bind insoluble amyloid or amyloid plaques in preference to soluble amyloid
NCCCC[C@H](NCCCS(=O)(=O)O)C(=O)O [alpha-N-(3-sulfopropyl)-L-lysine] | bind insoluble amyloid or amyloid plaques in preference to soluble amyloid
